Measurements as given in patent publication US4055640A, “Compositions and methods for controlling the growth of bacteria, fungi and algae using certain derivatives of N-(2,2-dichlorovinyl)salicylamides” (Nippon Kayaku Co., Ltd., priority 1975, dated 1977).
Values after ≈ are worked out from the molar mass of the structure shown. Where a name gives a salt, the structure may show the parent alone.

Legend:
[1] = acute oral toxicity against a mouse; conditions: in vivo
Chaetomium globosum = assay: Minimum inhibitory concentration, dilution methods (Example 14); type: cell-based
Excerpt: (§1) Bacteriocidal activity and fungicidal activity of the active compounds of the present invention were examined by potato-dextrose agar dilution method, [2] waxman's liquid medium dilution method or [3] glucose bouillon medium dilution method. The results are shown in Table 4 below as the minimum inhibitory concentration (the minimum concentration of active compound found to produce 100% control of the test bacteria and fungi).

Geotrichum candium = assay: as above; type: cell-based
Excerpt: as §1

Pseudomonas fluorescens = assay: as above; type: cell-based
Excerpt: as §1

[2] = test system: fungi in the paints or the cutting oil; assay: Growth of fungi in paints or cutting oil (Example 11); conditions: oil soluble concentrate, 0.1%
Experimental: The above ingredients were mixed. An oil soluble concentrate was obtained. In the form of the oil soluble concentrate, Compound No. 1 was added to paints or the cutting oil in an amount of 0.1%.

[3] = test system: Fusarium wilt of cucumber; assay: Exterminating test on Fusarium wilt of cucumber (Experimental Example 4); type: in vivo, Fusarium oxysporum f, cucumerinum; conditions: Fusarium, soil, 336 h, 500 ppm, soil drench 100 ml per pot, two weeks; read-out: Percentage of healthy seedlings
Outline: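 Pots of steam-sterilized soil mixed with 20 g infested soil, sown with 18 cucumber seeds (Tokiwazibai), drenched with 100 ml aqueous suspension of 80% wettable powder. Benlate 50% wettable powder run as control. Disease scored two weeks after planting as percentage of healthy seedlings.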

[4] = test system: Xanthomonas citri (citrus canker); assay: Exterminating test on citrus canker (Experimental Example 6); type: in vivo; conditions: Xanthomonas citri, 336 h, read-out: Effect Index, 1,000 ppm, 2 weeks after inoculation
Outline: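 Four-year-old potted summer orange seedlings sprayed with diluted 80% wettable powder, then needle-inoculated on leaves with Xanthomonas citri and held 24 h moist at 25 °C before greenhouse. Disease attack scored 2 weeks post-inoculation and expressed as an Effect Index.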

[5] = test system: Aspergillus niger, Penicillium citrinum, Cladosporium harbarum and chaetomium globosum; assay: Degree of growth inhibition of fungi on treated beach plates (Example 25); type: cell-based; design: scale not given here; conditions: numerical rating, 2 weeks
Outline: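 Beech plates 5 cm square and 5 mm thick were dipped for 2 min in emulsifiable concentrate diluted 400- and 800-fold in water, then dried 24 h at room temperature. Plates were set on agar, sprayed with fungal spore suspensions and incubated 2 weeks at 28 °C and 95% humidity; growth inhibition was scored on a numerical rating.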

Aspergillus niger [6] = assay: Region of growth-inhibition around treated cotton cloth (Example 26); type: cell-based; conditions: emulsifiable concentrate diluted 100 times
Experimental: (§2) The emulsifiable concentrates which were prepared by Example 20 were diluted with water 100 times to form an emulsion. A cloth of cotton was soaked into each emulsion for 2 minutes. The clothes were dried at room temperature and cut into a square of which a side was 1 cm long. Each kind of test bacteria and fungi was inoculated, separately, on plates of potato-agar and one square cloth placed on each of such plates. Test bacteria and fungi were cultivated at 28° C for 4 days. The width of the region of growth-inhibition which was formed a circumference of the cloth was measured.

Bacillus subtilis [7] = assay: as above; type: cell-based; conditions: emulsifiable concentrate diluted 100 times
Experimental: as §2

Penicillium Citrinum [8] = assay: as above; type: cell-based; conditions: emulsifiable concentrate diluted 100 times
Experimental: as §2

Staphylococcus oureus = assay: as above; type: cell-based; conditions: emulsifiable concentrate diluted 100 times
Experimental: as §2

[9] = test system: Aspergillus niger, Penicillium citrinum, Cladosporium harbarum and chaetomium globosum; assay: Degree of growth inhibition of fungi on treated beach plates (Example 17); type: cell-based; design: scale not given here; conditions: numerical rating, 2 weeks
Outline: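 Beech plates were dipped for 2 minutes in emulsifiable concentrate diluted 400- and 800-fold in water, then dried for 24 hours. They were laid on agar and sprayed with spores of each fungus, then incubated at 95% humidity and 28° C for 2 weeks. Growth inhibition was scored on a numerical rating scale.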

Aspergillus niger [10] = assay: Growth inhibition zone around treated cotton cloth (Example 18); type: cell-based; conditions: emulsifiable concentrate diluted 1000 times
Experimental: as §2, with “by Example 10 were diluted” for “by Example 20 were diluted”, “with water 1000 times to” for “with water 100 times to”, “was inoculated, separately on plates” for “was inoculated, separately, on plates”, “square cloth was placed on” for “square cloth placed on”, “cloth was examined.” for “cloth was measured.”

Bacillus subtilis [11] = assay: as above; type: cell-based; conditions: emulsifiable concentrate diluted 1000 times
Experimental: as §2, with “by Example 10 were diluted” for “by Example 20 were diluted”, “with water 1000 times to” for “with water 100 times to”, “was inoculated, separately on plates” for “was inoculated, separately, on plates”, “square cloth was placed on” for “square cloth placed on”, “cloth was examined.” for “cloth was measured.”

Penicillium Citrinum [12] = assay: as above; type: cell-based; conditions: emulsifiable concentrate diluted 1000 times
Experimental: as §2, with “by Example 10 were diluted” for “by Example 20 were diluted”, “with water 1000 times to” for “with water 100 times to”, “was inoculated, separately on plates” for “was inoculated, separately, on plates”, “square cloth was placed on” for “square cloth placed on”, “cloth was examined.” for “cloth was measured.”

Staphylococcus aureus = assay: as above; type: cell-based; conditions: emulsifiable concentrate diluted 1000 times
Experimental: as §2, with “by Example 10 were diluted” for “by Example 20 were diluted”, “with water 1000 times to” for “with water 100 times to”, “was inoculated, separately on plates” for “was inoculated, separately, on plates”, “square cloth was placed on” for “square cloth placed on”, “cloth was examined.” for “cloth was measured.”

[13] = test system: Bacteria, fungi and slime; assay: Inhibition of bacteria, fungi and slime in use (Example 13); conditions: water soluble concentrate; 10-20 ppm in water, 0.01%-0.1% in pastes
Experimental: Before application, the concentrate was diluted 500-1000 times with water and sprayed on the inside of cotes to prevent the growth of bacterial and fungi.
The solution was added to water in circular water systems to inhibit the growth of slime. The concentration of Compound No. 20 in the water was 10-20 ppm.
An amount from 0.01%-0.1% of Compound No. 20 as the solution was added to pastes or binding agents to prevent rottenness of them.

[14] = (1) potato-dextrose agar dilution method
[15] = (2) waxman's liquid medium dilution method

With O=C(NC=C(Cl)Cl)c1ccccc1O [Compound No. 1, N-(β,β-dichlorovinyl) salicylamide] the LD50 [1] was > 6000 mg/kg, the MIC (Chaetomium globosum; [14]) was 5 µg/mL (≈ 21.5 µM) and the MIC (Chaetomium globosum; [15]) was 10 µg/mL (≈ 43.1 µM). It also gave an MIC (Geotrichum candium; [14]) of 10 µg/mL (≈ 43.1 µM), an MIC (Geotrichum candium; [15]) of 20 µg/mL (≈ 86.2 µM) and a minimum inhibitory concentration (Pseudomonas fluorescens; [14]) of 40 mc g/ml. The MIC (Pseudomonas fluorescens; Pseudomonas fluorescens, (2) waxman's liquid medium dilution method) was 40 µg/mL (≈ 172 µM) and the “growth of fungi in the paints or the cutting oil” value [2] was “controlled”.
For CC(=O)Oc1ccccc1C(=O)NC=C(Cl)Cl [Compound No. 6, O-acetyl-N-(2,2-dichlorovinyl) salicylamide], the pest or weed control at 500 ppm [3] was 83%, the pest or weed control at 1000 ppm [4] was 96.1% and the “Degree of growth inhibition” value ([5]; 0.0125 %) was 3. For the same compound, the “Degree of growth inhibition” value ([5]; 0.025 %) was 3, the “width of the region of growth-inhibition” value (Aspergillus niger [6]) was 5 mm and the “width of the region of growth-inhibition” value (Bacillus subtilis [7]) was 9 mm. For the same compound, the “width of the region of growth-inhibition” value (Penicillium Citrinum [8]) was 7 mm and the “width of the region of growth-inhibition” value (Staphylococcus oureus) was 7 mm.
In the case of O=C(NC=C(Cl)Cl)c1ccccc1O [Compound No. 20, sodium salt of N-(β,β-dichlorovinyl) salicylamide], the “Degree of growth inhibition” value ([9]; 0.0125 %) is reported as 3, the “Degree of growth inhibition” value ([9]; 0.025 %) is reported as 3 and the “width of the growth inhibition zone” value (Aspergillus niger [10]) is reported as 6 mm. For the same compound, the “width of the growth inhibition zone” value (Bacillus subtilis [11]) was 8 mm, the “width of the growth inhibition zone” value (Penicillium Citrinum [12]) was 7 mm and the “width of the growth inhibition zone” value (Staphylococcus aureus) was 7 mm. For the same compound, the “inhibition of bacteria, fungi and slime” value [13] was “inhibited for a long time”.
